Reference: PubChem BioAssay AID1259411 (Chemical Carcinogenesis Research Information System (CCRIS), 2018)
Calls of active or inactive are those of the source. The rule behind the calls is not given here.

System: rodent carcinogenicity bioassays, tumor incidence
Test: CCRIS carcinogenicity studies
Description: The CCRIS database contains chemical records with carcinogenicity, mutagenicity, tumor promotion, and tumor inhibition test results. It was developed by the National Cancer Institute (NCI). Data are derived from studies cited in primary journals, current awareness tools, NCI reports, and other sources. Test results have been reviewed by experts in carcinogenesis and mutagenesis.
CCRIS provides historical information from the years 1985 - 2011. It is no longer updated.
This is an archive assay for CCRIS carcinogenicity studies.

CN1C(C(=O)Nc2ccccn2)=C(O)c2sc(Cl)cc2S1(=O)=O
carcinogen call (Species: RAT, Strain/Sex: SPRAGUE-DAWLEY/FEMALE, Route: GAVAGE, Dose: 0, 0.0625, 0.125, 0.250 MG/KG BW/D FOR 104 WK, HIGH DOSE REDUCED TO 0.0200 MG/KG FROM STUDY WK 42 TO 50 THEN TO 0.160 MG, Dose: 0, 0.0625, 0.125, 0.250 MG/KG BW/D FOR 104 WK, HIGH DOSE REDUCED TO 0.0200 MG/KG FROM STUDY WK 42 TO 50 THEN TO 0.160 MG): inactive; negative | carcinogen call (Species: RAT, Strain/Sex: SPRAGUE-DAWLEY/MALE, Route: GAVAGE, Dose: 0, 0.0625, 0.125, 0.250 MG/KG BW/D FOR 104 WK (STUDY DURATION: 104 WK), Dose: 0, 0.0625, 0.125, 0.250 MG/KG BW/D FOR 104 WK (STUDY DURATION: 104 WK)): inactive; negative

O[C@@H]1[C@@H](O)[C@@H]2OC[C@@H](O2)[C@H]1O
carcinogen call (Species: MOUSE, Strain/Sex: CD-1/FEMALE, Route: DERMAL, Dose: 0, 20 UMOL/0.1 ML DMSO 2/WK FOR 5 WK FOLLOWED 1 WK LATER BY 0.1 ML ACETONE 2/WK FOR 47 WK (STUDY DURATION: 52 WK)): inactive; negative

CC(=O)Nc1ccc(CC(=O)O)cc1
carcinogen call (Species: MOUSE, Strain/Sex: B6C3F1/FEMALE, Route: ORAL, Dose: 0;300, 1000, 3000 MG/KG IN DIET FOR 78 WK (STUDY DURATION: 78 WK), Dose: 0;300, 1000, 3000 MG/KG IN DIET FOR 78 WK (STUDY DURATION: 78 WK)): inactive; negative | carcinogen call (Species: MOUSE, Strain/Sex: B6C3F1/MALE, Route: ORAL, Dose: 0, 300, 1000, 3000 MG/KG IN DIET FOR 78 WK (STUDY DURATION: 78 WK), Dose: 0, 300, 1000, 3000 MG/KG IN DIET FOR 78 WK (STUDY DURATION: 78 WK)): inactive; negative | carcinogen call (Species: RAT, Strain/Sex: F344/FEMALE, Route: ORAL, Dose: 0, 300, 1000, 3000 MG/KG/D IN DIET FOR 104 WK (STUDY DURATION: 104 WK), Dose: 0, 300, 1000, 3000 MG/KG/D IN DIET FOR 104 WK (STUDY DURATION: 104 WK)): inactive; negative | carcinogen call (Species: RAT, Strain/Sex: F344/MALE, Route: ORAL, Dose: 0, 300, 1000, 3000 MG/KG/D IN DIET FOR 104 WK (STUDY DURATION: 104 WK), Dose: 0, 300, 1000, 3000 MG/KG/D IN DIET FOR 104 WK (STUDY DURATION: 104 WK)): inactive; negative

Cc1ccc2ncccc2c1
carcinogen call (Species: RAT, Strain/Sex: F344/MALE,FEMALE, Route: ORAL, Dose: 0.05% IN DIET FOR 2 YR): inactive; negative

O[C@H]1C=Cc2c(ccc3cccnc23)[C@@H]1O
carcinogen call (Species: MOUSE, Strain/Sex: CD-1/FEMALE, Route: INTRAPERITONEAL, Dose: 0, 5, 10 AND 20 µL OF A 0.05 MOLAR SOLUTION ON DAYS 1, 8 AND 15 OF LIFE RESPECTIVELY (TOTAL DOSE: 1.75 UMOL) (STUDY DURA, Dose: 0, 5, 10 AND 20 µL OF A 0.05 MOLAR SOLUTION ON DAYS 1, 8 AND 15 OF LIFE RESPECTIVELY (TOTAL DOSE: 1.75 UMOL) (STUDY DURA): inactive; negative | carcinogen call (Species: MOUSE, Strain/Sex: CD-1/MALE, Route: INTRAPERITONEAL, Dose: 0, 5, 10 AND 20 µL OF A 0.05 MOLAR SOLUTION ON DAYS 1, 8 AND 15 OF LIFE RESPECTIVELY (TOTAL DOSE: 1.75 UMOL) (STUDY DURA, Dose: 0, 5, 10 AND 20 µL OF A 0.05 MOLAR SOLUTION ON DAYS 1, 8 AND 15 OF LIFE RESPECTIVELY (TOTAL DOSE: 1.75 UMOL) (STUDY DURA): inactive; negative

Clc1ccc(-c2ccc(Cl)c(Cl)c2Cl)c(Cl)c1Cl
carcinogen call (Species: RAT, Strain/Sex: SHERMAN/FEMALE, Route: ORAL, Dose: 100 MG/KG IN DIET, Tumor Site: Type of Lesion: LIVER: NEOPLASTIC NODULE, HEPATOCELLULAR CARCINOMA): active; positive | carcinogen call (Species: RAT, Strain/Sex: SPRAGUE-DAWLEY/FEMALE, Route: ORAL, Dose: 0, 25, 50, 100 PPM IN DIET FOR THE DURATION OF STUDY (STUDY DURATION: 24 MO), Dose: 0, 25, 50, 100 PPM IN DIET FOR THE DURATION OF STUDY (STUDY DURATION: 24 MO), Tumor Site: Type of Lesion: LIVER: TUMOR): active; positive | carcinogen call (Species: RAT, Strain/Sex: SPRAGUE-DAWLEY/FEMALE, Route: ORAL, Dose: 0, 100 PPM IN DIET FOR 16 MO AND 50 PPM FOR AN ADDITIONAL 8 MO FOLLOWED BY CONTROL DIET FOR 5 MO (STUDY DURATION: 29 MO), Tumor Site: Type of Lesion: LIVER: TRABECULAR CARCINOMA, ADENOCARCINOMA): active; positive | carcinogen call (Species: RAT, Strain/Sex: SPRAGUE-DAWLEY/MALE, Route: ORAL, Dose: 0, 25, 50, 100 PPM IN DIET FOR THE DURATION OF STUDY (STUDY DURATION: 24 MO), Dose: 0, 25, 50, 100 PPM IN DIET FOR THE DURATION OF STUDY (STUDY DURATION: 24 MO), Tumor Site: Type of Lesion: THYROID GLAND: ADENOMA OR CARCINOMA, LIVER: TUMOR): active; positive | carcinogen call (Species: RAT, Strain/Sex: SPRAGUE-DAWLEY/MALE, Route: ORAL, Dose: 0, 100 PPM IN DIET FOR 16 MO AND 50 PPM FOR AN ADDITIONAL 8 MO FOLLOWED BY CONTROL DIET FOR 5 MO (STUDY DURATION: 29 MO)): inactive; negative | carcinogen call (Species: RAT, Strain/Sex: WISTAR/MALE, Route: ORAL, Dose: 0, 50, 100 PPM IN A 10% PROTEIN DIET FOR 4 MO (STUDY DURATION: 4 MO), Dose: 0, 50, 100 PPM IN A 10% PROTEIN DIET FOR 4 MO (STUDY DURATION: 4 MO), Tumor Site: Type of Lesion: THYMUS: NEOPLASM, SPLEEN: NEOPLASM): active; positive

NC(=O)c1cnccn1
carcinogen call (Species: MOUSE, Strain/Sex: B6C3F1/MALE, Route: ORAL, Dose: 0, 5000, 10000 PPM IN DIET, Dose: 0, 5000, 10000 PPM IN DIET): inactive; negative | carcinogen call (Species: RAT, Strain/Sex: F344/FEMALE, Route: ORAL, Dose: 0, 5000, 10000 PPM IN DIET, Dose: 0, 5000, 10000 PPM IN DIET): inactive; negative | carcinogen call (Species: RAT, Strain/Sex: F344/MALE, Route: ORAL, Dose: 0, 5000, 10000 PPM IN DIET, Dose: 0, 5000, 10000 PPM IN DIET): inactive; negative

CNC(=S)N(C)C
carcinogen call (Species: MOUSE, Strain/Sex: B6C3F1/FEMALE, Route: ORAL, Dose: 0, 500, 1000 PPM IN DIET, Dose: 0, 500, 1000 PPM IN DIET): inactive; negative | carcinogen call (Species: MOUSE, Strain/Sex: B6C3F1/MALE, Route: ORAL, Dose: 0, 500, 1000 PPM IN DIET, Dose: 0, 500, 1000 PPM IN DIET): inactive; negative | carcinogen call (Species: RAT, Strain/Sex: F344/FEMALE, Route: ORAL, Dose: 0, 250, 500 PPM IN DIET, Dose: 0, 250, 500 PPM IN DIET, Tumor Site: Type of Lesion: THYROID GLAND: FOLLICULAR CELL CARCINOMA OR ADENOMA): active; positive | carcinogen call (Species: RAT, Strain/Sex: F344/MALE, Route: ORAL, Dose: 0, 250, 500 PPM IN DIET, Dose: 0, 250, 500 PPM IN DIET): inactive; negative

CCCCCCc1ccc(O)cc1O
carcinogen call (Species: MOUSE, Strain/Sex: B6C3F1/FEMALE, Route: GAVAGE, Dose: 0, 62.5, 125 MG/KG IN CORN OIL 5D/WK FOR 102 WK (STUDY DURATION: 104 WK), Dose: 0, 62.5, 125 MG/KG IN CORN OIL 5D/WK FOR 102 WK (STUDY DURATION: 104 WK)): inactive; negative | carcinogen call (Species: MOUSE, Strain/Sex: B6C3F1/MALE, Route: GAVAGE, Dose: 0, 62.5, 125 MG/KG IN CORN OIL 5D/WK FOR 102 WK (STUDY DURATION: 104 WK), Dose: 0, 62.5, 125 MG/KG IN CORN OIL 5D/WK FOR 102 WK (STUDY DURATION: 104 WK), Tumor Site: Type of Lesion: ADRENAL GLAND: PHEOCHROMOCYTOMA, HARDERIAN GLAND: ADENOMA OR CARCINOMA): equivocal | carcinogen call (Species: RAT, Strain/Sex: F344/FEMALE, Route: GAVAGE, Dose: 0, 62.5, 125 MG/KG IN CORN OIL 5D/WK FOR 103 WK (STUDY DURATION: 104 WK), Dose: 0, 62.5, 125 MG/KG IN CORN OIL 5D/WK FOR 103 WK (STUDY DURATION: 104 WK)): inactive; negative | carcinogen call (Species: RAT, Strain/Sex: F344/MALE, Route: GAVAGE, Dose: 0, 62.5, 125 MG/KG IN CORN OIL 5D/WK FOR 103 WK (STUDY DURATION: 104 WK), Dose: 0, 62.5, 125 MG/KG IN CORN OIL 5D/WK FOR 103 WK (STUDY DURATION: 104 WK)): inactive; negative

OC(Cn1cncn1)(Cn1cncn1)c1ccc(F)cc1F
carcinogen call (Species: RAT, Strain/Sex: SPRAGUE-DAWLEY/FEMALE, Route: ORAL, Dose: 0, 2.5, 5, 10 MG/KG IN DIET FOR 24 MO (STUDY DURATION: 24 MO), Dose: 0, 2.5, 5, 10 MG/KG IN DIET FOR 24 MO (STUDY DURATION: 24 MO)): inactive; negative | carcinogen call (Species: RAT, Strain/Sex: SPRAGUE-DAWLEY/MALE, Route: ORAL, Dose: 0, 2.5, 5, 10 MG/KG IN DIET FOR 24 MO (STUDY DURATION: 24 MO), Dose: 0, 2.5, 5, 10 MG/KG IN DIET FOR 24 MO (STUDY DURATION: 24 MO), Tumor Site: Type of Lesion: LIVER: HEPATOCELLULAR ADENOMA): active; positive
